{"source": "paper PMC12491383", "about": "“Organ and tumour dosimetry of ^177Lu-rhPSMA-10.1, a novel PSMA-targeted therapy: results from a Phase I trial” (European Journal of Nuclear Medicine and Molecular Imaging, 2025)", "origin": "cited, not measured here", "key": {"[1]": {"parameters": "method as in PMID 38050121", "conditions": "cited from earlier work"}, "[2]": {"parameters": "method as in PMID 34887335", "conditions": "reported data; cited from earlier work"}}}
{"smiles": "O=C([O-])CN1CCN(CC(=O)[O-])CCN(CC(=O)NCC2CCC(C(=O)N[C@@H](Cc3ccc4ccccc4c3)C(=O)NCCCC[C@H](NC(=O)N[C@@H](CCC(=O)O)C(=O)O)C(=O)O)CC2)CCN(CC(=O)[O-])CC1.[177Lu+3]", "note": "(stereo partly shown) [^177Lu-PSMA-617, lutetium Lu 177 vipivotide tetraxetan]", "values": [{"measurement": "Absorbed dose to the bone marrow", "setting": "[1]; VISION dosimetry substudy", "value": 0.035, "unit": "Gy/GBq"}, {"measurement": "Absorbed dose in the salivary glands", "setting": "[1]; VISION substudy", "value": 0.63, "unit": "Gy/GBq"}, {"measurement": "Absorbed dose in the kidneys", "setting": "[1]; dosimetry substudy of the Phase III VISION trial", "value": 0.43, "unit": "Gy/GBq"}, {"measurement": "Tumour effective half-life", "setting": "[2]", "value": 61, "unit": "h"}]}
